Measurements as given in US11389423B2, “Pharmaceutical composition, excipient for the composition and use of the composition” (priority 2018, dated 2022).

What was measured:
[1] = test system: polychromatic erythrocytes; conditions: rats male and female, 20 mg/kg intraperitoneally
Method: To perform the micronucleus test (Schmid, 1976), different groups of rats (male and female; n=10) received three doses of CBD (500, 1000 and 2000 mg/kg) orally. The negative control group received placebo by gavage and the positive control was treated with cyclophosphamide monohydrate (20 mg/kg—Sigma-Aldrich) intraperitoneally. After 24 hours (cyclophosphamide) and 48 hours (CBD-SINT and vehicle) the end of treatments, the animals were euthanized by decapitation. The femurs were removed, the proximal epiphysis was removed to expose the medullary canal and, with the aid of a 13×4.5 mm needle and 3 mL NaCl solution (150 mM), the marrow was removed, washing the medullary canal with NaCl solution. The material was transferred to glass tubes and centrifuged at 1000 rpm/5 min. After centrifugation, the supernatant was discarded, and the deposit was resuspended with a 4% formaldehyde solution and slightly homogenized with the aid of a Pasteur pipette. A drop of this cell suspension was placed on a clean, dry slide, and then the smear was performed. The slides were dried at room temperature and, after 24 hours, stained with Leishman eosin-methylene blue and subjected to microscopic analysis. To determine the number of micronuclei, 2000 polychromatic erythrocytes were counted per animal (1000 in each slide) using an optical microscope, at 400× magnification. The analysis of the slides was blind and performed by a single evaluator.

[2] = test system: DNA of male and female rats; conditions: rats male and female, 20 mg/kg intraperitoneally, 24 hours, positive control
Method: The negative control group received placebo by gavage and the positive control was treated with cyclophosphamide monohydrate (20 mg/kg—Sigma-Aldrich) intraperitoneally.

SMILES: O=P1(N(CCCl)CCCl)NCCCO1 (stereo not shown) [cyclophosphamide, cyclophosphamide monohydrate, reference compound]
- average number of MNPCE ([1]; 24 hours, positive control (C+)): significant increase
- ratio of polychromatic/normochromatic erythrocytes (PCE/NCE ratio) ([1]; positive control): significantly changed
- increase in the frequency of damage [2]: approximately 100%
- increase in the index of damage [2]: approximately 100%
